The compounds below were run on FLAP (5-lipoxygenase activating protein) (assay: In vitro binding test: displacement of [3H]-7-chloro-3-(5-((3-fluoropyridin-2-yl)methoxy)-2-methylphenyl)-3,4-dihydroquinazolin-2(1H)-one from Sf9 microsome fractions). Settings: Sf9 microsome fractions expressing FLAP; 100% = radioligand binding with 10 μM sodium 3-(3-(tert-butylsulfanyl)-1-(4-chlorobenzyl)-5-isopropyl-1H-indol-2-yl)-2,2-dimethylpropanoate, 0% = DMSO; test compound concentration not given.
Set-up: species or system human and mouse
Procedure, shortened: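 Sf9 microsomes expressing human or mouse FLAP (2 μg/mL) preincubated with compound 10 min at room temperature, then 120 nM tritiated quinazolinone ligand added for 60 min; buffer 100 mM Tris-HCl pH 7.5 with NaCl, EDTA, DTT, glycerol, Tween20. Bound ligand filtered and counted by scintillation; 10 μM indole propanoate defines 100% inhibition, DMSO 0%.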

In order of rising “inhibitory rate (%)” value:
1. O=C1Nc2c(C3CC3)ncc(Cl)c2CN1c1cc2c(cc1Cl)CCC(c1ncccc1F)O2 (stereo not shown) [Example 143, 5-chloro-3-(6-chloro-2-(3-fluoropyridin-2-yl)-3,4-dihydro-2H-chromen-7-yl)-8-cyclopropyl-3,4-dihydropyrido[3,4-d]pyrimidin-2(1H)-one]  89%
2. Cc1cc2c(cc1N1Cc3c(cc(N4CCCC4=O)nc3C3CC3)NC1=O)OC(c1ncccc1F)CC2 (stereo not shown) [Example 144, 5-cyclopropyl-3-(2-(3-fluoropyridin-2-yl)-6-methyl-3,4-dihydro-2H-chromen-7-yl)-7-(2-oxopyrrolidin-1-yl)-3,4-dihydropyrido[4,3-d]pyrimidin-2(1H)-one]  92%
3. COC1CN(C(=O)c2cc3c(c(C4CC4)n2)CN(c2cc4c(cc2Cl)CCC(c2ncccc2F)O4)C(=O)N3)C1 (stereo not shown) [Example 146, 3-(6-chloro-2-(3-fluoropyridin-2-yl)-3,4-dihydro-2H-chromen-7-yl)-5-cyclopropyl-7-((3-methoxyazetidin-1-yl)carbonyl)-3,4-dihydropyrido[4,3-d]pyrimidin-2(1H)-one]  97%
4. O=C(c1cc2c(c(C3CC3)n1)CN(c1cc3c(cc1Cl)CCC(c1ncccc1F)O3)C(=O)N2)N1CC(F)(F)C1 (stereo not shown) [Example 139, 3-(6-chloro-2-(3-fluoropyridin-2-yl)-3,4-dihydro-2H-chromen-7-yl)-5-cyclopropyl-7-((3,3-difluoroazetidin-1-yl)carbonyl)-3,4-dihydropyrido[4,3-d]pyrimidin-2(1H)-one]  98%
5. Cc1cc2c(cc1N1Cc3c(cc(-n4cncn4)nc3C3CC3)NC1=O)OC(c1ncccc1F)CC2 (stereo not shown) [Example 140, 5-cyclopropyl-3-(2-(3-fluoropyridin-2-yl)-6-methyl-3,4-dihydro-2H-chromen-7-yl)-7-(1H-1,2,4-triazol-1-yl)-3,4-dihydropyrido[4,3-d]pyrimidin-2(1H)-one]  99%
6. Cc1cc2c(cc1N1Cc3c(cc(Oc4ccnn4C)nc3C3CC3)NC1=O)OC(c1ncccc1F)CC2 (stereo not shown) [Example 141, 5-cyclopropyl-3-(2-(3-fluoropyridin-2-yl)-6-methyl-3,4-dihydro-2H-chromen-7-yl)-7-((1-methyl-1H-pyrazol-5-yl)oxy)-3,4-dihydropyrido[4,3-d]pyrimidin-2(1H)-one]  102%
7. Cc1cc2c(cc1N1Cc3c(Cl)cnc(C4CC4)c3NC1=O)OC(c1ncccc1F)CC2 (stereo not shown) [Example 142, 5-chloro-8-cyclopropyl-3-(2-(3-fluoropyridin-2-yl)-6-methyl-3,4-dihydro-2H-chromen-7-yl)-3,4-dihydropyrido[3,4-d]pyrimidin-2(1H)-one]  102%
8. O=C(c1cc2c(c(C3CC3)n1)CN(c1cc3c(cc1Cl)CCC(c1ncccc1F)O3)C(=O)N2)N1CC2(COC2)C1 (stereo not shown) [Example 137, 3-(6-chloro-2-(3-fluoropyridin-2-yl)-3,4-dihydro-2H-chromen-7-yl)-5-cyclopropyl-7-(2-oxa-6-azaspiro[3.3]hept-6-ylcarbonyl)-3,4-dihydropyrido[4,3-d]pyrimidin-2(1H)-one]  104%
9. O=C(c1cc2c(c(C3CC3)n1)CN(c1cc3c(cc1Cl)CCC(c1ncccc1F)O3)C(=O)N2)N1CC(F)C1 (stereo not shown) [Example 145, 3-(6-chloro-2-(3-fluoropyridin-2-yl)-3,4-dihydro-2H-chromen-7-yl)-5-cyclopropyl-7-((3-fluoroazetidin-1-yl)carbonyl)-3,4-dihydropyrido[4,3-d]pyrimidin-2(1H)-one]  104%
10. Cc1cc2c(cc1N1Cc3c(cc(N4CCOC4=O)nc3C3CC3)NC1=O)OC(c1ncccc1F)CC2 (stereo not shown) [Example 138, 5-cyclopropyl-3-(2-(3-fluoropyridin-2-yl)-6-methyl-3,4-dihydro-2H-chromen-7-yl)-7-(2-oxo-1,3-oxazolidin-3-yl)-3,4-dihydropyrido[4,3-d]pyrimidin-2(1H)-one]  109%
